Experimental data: ChEMBL document CHEMBL3414533, “Thiophene containing trisubstituted methanes [TRSMs] as identified lead against Mycobacterium tuberculosis” (Eur J Med Chem, 2015)
≈ marks a conversion by molar mass, not a printed value. Calls of active or inactive are those of the source. The rule behind the calls is not given here.

Experiments:
[1] = Cytotoxicity against African green monkey Vero C1008 cells assessed as reduction in cell viability after 24 hrs by MTS assay; type: cell-based; conditions: Chlorocebus sabaeus
[2] = tested on: Mycobacterium tuberculosis; test: Antimycobacterial activity against Mycobacterium tuberculosis H37Rv infected in Swiss mouse assessed as median survival time at 100 mg/kg, po dosed daily for 28 days measured up to day 40; type: functional
[3] = tested on: Mycobacterium tuberculosis; test: Bactericidal activity against Mycobacterium tuberculosis H37Rv infected in Swiss mouse assessed as microbial killing by measuring colony forming units at 100 mg/kg, po dosed daily for 28 days (reference value: 4800 CFU); type: functional
[4] = tested on: Mycobacterium tuberculosis; test: Antimycobacterial activity against Mycobacterium tuberculosis H37Rv infected in Swiss mouse assessed as mouse survival level at 100 mg/kg, po dosed daily for 28 days measured up to day 40; type: functional
[5] = tested on: Mycobacterium tuberculosis; test: Antimycobacterial activity against Mycobacterium tuberculosis H37Rv infected in human blood monocyte derived macrophages assessed as reduction in intracellular colony forming units at 4 times antimycobacterial MIC measured during 3 hrs infection period relative to control; type: functional
[6] = Protein binding in rat plasma by HPLC and LC-MS/MS method; type: ADME, cell-free; conditions: read-out: PPB (converted)
[7] = tested on: Mycobacterium tuberculosis; test: Antimycobacterial activity against Mycobacterium tuberculosis H37Rv infected in mouse bone-marrow derived macrophages assessed as reduction in intracellular colony forming units at 4 times antimycobacterial MIC measured during 3 hrs infection period relative to control; type: functional
[8] = tested on: Mycobacterium tuberculosis; test: Bactericidal activity against Mycobacterium tuberculosis H37Rv assessed as microbial killing at 1 times and 4 times MIC level measured on day 14; type: functional
[9] = tested on: Mycobacterium tuberculosis; test: Antimycobacterial activity against Mycobacterium tuberculosis H37Rv infected in human blood monocyte derived macrophages assessed as reduction in intracellular colony forming units at 4 times antimycobacterial MIC measured during 3 hrs infection period; type: functional, organism-based
[10] = tested on: Mycobacterium tuberculosis; test: Antimycobacterial activity against Mycobacterium tuberculosis H37Rv infected in mouse bone-marrow derived macrophages assessed as reduction in intracellular colony forming units at 4 times antimycobacterial MIC measured during 3 hrs infection period; type: functional
[11] = tested on: Mycobacterium tuberculosis; test: Antimycobacterial activity against Mycobacterium tuberculosis H37Rv incubated at 37 degC for 4 weeks; type: functional; conditions: 672 h
[12] = Mean residence time in rat by HPLC and LC-MS/MS method; type: ADME, organism-based; conditions: in vivo
[13] = Selectivity index, ratio of IC50 for African green monkey Vero C1008 cells to MIC for Mycobacterium tuberculosis H37Rv; type: toxicity, cell-based; conditions: read-out: Selectivity Index
[14] = tested on: Mycobacterium tuberculosis; test: Antimycobacterial activity against drug-sensitive Mycobacterium tuberculosis H37Rv by agar dilution method; type: functional
[15] = tested on: Mycobacterium tuberculosis; test: Antimycobacterial activity against Mycobacterium tuberculosis H37Rv infected in Swiss mouse assessed as reduction in lung bacterial lesions at 100 mg/kg, po dosed daily for 28 days measured up to day 40 by Ziehl-Neelsen staining method; type: functional, organism-based; set-up: dose 100 mg/kg
[16] = Bioavailability in rat by HPLC and LC-MS/MS method; type: ADME, organism-based; conditions: in vivo
[17] = tested on: Mycobacterium tuberculosis; test: Bactericidal activity against Mycobacterium tuberculosis H37Rv infected in Swiss mouse assessed as microbial killing at 100 mg/kg, po dosed daily for 28 days; type: functional; conditions: 672 h
[18] = tested on: Mycobacterium tuberculosis; test: Antimycobacterial activity against Mycobacterium tuberculosis H37Rv infected in Swiss mouse assessed as lung bacterial colony forming units at 100 mg/kg, po dosed daily for 28 days measured up to day 40 (reference value: 31 10^7 CFU); type: functional
[19] = tested on: Mycobacterium tuberculosis; test: Antimycobacterial activity against Mycobacterium tuberculosis H37Rv infected in Swiss mouse assessed as reduction in lung bacterial colony forming units at 100 mg/kg, po dosed daily for 28 days measured up to day 40; type: functional
[20] = tested on: Mycobacterium tuberculosis; test: Bactericidal activity against Mycobacterium tuberculosis H37Rv assessed as microbial killing by measuring colony forming units at 1 times and 4 times MIC level measured on day 14 (reference value: 1680 CFU); type: functional
[21] = Elimination half life in rat by HPLC and LC-MS/MS method; type: ADME, organism-based; conditions: in vivo, read-out: beta t1/2 (converted)
[22] = tested on: Mycobacterium tuberculosis; test: Antimycobacterial activity against Mycobacterium tuberculosis H37Rv infected in Swiss mouse assessed as lung bacterial colony forming units at 150 mg/kg, po dosed daily for 28 days measured up to day 40 (reference value: 31 10^7 CFU); type: functional
[23] = tested on: Mycobacterium tuberculosis; test: Bactericidal activity against Mycobacterium tuberculosis H37Rv infected in Swiss mouse assessed as microbial killing by measuring colony forming units dosed orally daily for 28 days (reference value: 4800 CFU); type: functional
[24] = tested on: Mycobacterium tuberculosis; test: Antimycobacterial activity against Mycobacterium tuberculosis H37Rv infected in Swiss mouse assessed as lung bacterial colony forming units at 10 mg/kg, po dosed daily for 28 days measured up to day 40 (reference value: 31 10^7 CFU); type: functional

Structure (SMILES) | IC50 [1] | MIC [11] | selectivity ratio [13] | also measured
COc1ccc(C(c2ccc(OCCN(C(C)C)C(C)C)cc2)c2cccs2)cc1 (stereo not drawn) | 100 µg/mL (≈ 236 µM) | 1.33 µg/mL (≈ 3.14 µM) | > 10 | MST [2]: 7 days; CFU [3]: 1200; survival at 100 mg/kg [4]: 42%; inhibition (INH) [5]: 81%; fraction unbound [6]: 0.4; inhibition (INH) [7]: 96%; inhibition (INH) [8]: 100%; inhibition [9]: Active; inhibition (percent reduction in intracellular colony forming units) [10]: >90%; MRT [12]: 18 h; MIC [14]: 3.12 µM (≈ 1.32 µg/mL); Activity [15]: Active; bioavailability [16]: 45%; inhibition in vivo at 100 mg/kg [17]: 75%; Activity [18]: 2.2 ×10⁷ CFU; fold change (FC) [19]: 15; CFU [20]: 0; half-life [21]: 9 h
Clc1cccc(C(c2ccc(OCCN3CCCC3)cc2)c2cccs2)c1 (stereo not drawn) | 8.6 µg/mL (≈ 21.6 µM) | 2.49 µg/mL (≈ 6.26 µM) | < 10 | 
COc1ccccc1C(c1ccc(OCCN(C)C)cc1)c1cccs1 (stereo not drawn) |  | 9.19 µg/mL (≈ 25 µM) |  | 
CN(C)CCOc1ccc(C(c2cccc(Cl)c2)c2cccs2)cc1 (stereo not drawn) | 10.8 µg/mL (≈ 29 µM) | 4.65 µg/mL (≈ 12.5 µM) | < 10 | 
Fc1ccccc1C(c1ccc(OCCN2CCCCC2)cc1)c1cccs1 (stereo not drawn) | 3.9 µg/mL (≈ 9.86 µM) | 1.24 µg/mL (≈ 3.13 µM) | < 10 | 
COc1ccccc1C(c1ccc(OCCN2CCCCC2)cc1)c1cccs1 (stereo not drawn) | 9.2 µg/mL (≈ 22.6 µM) | 1.28 µg/mL (≈ 3.14 µM) | < 10 | 
Fc1ccccc1C(c1ccc(OCCN2CCOCC2)cc1)c1cccs1 (stereo not drawn) |  | 19.9 µg/mL (≈ 50.1 µM) |  | 
CCN(CC)CCOc1ccc(C(c2ccccc2)c2cccs2)cc1 (stereo not drawn) |  | 12.5 µg/mL (≈ 34.1 µM) |  | 
CCN(CC)CCOc1ccc(C(c2cccs2)c2ccccc2F)cc1 (stereo not drawn) |  | 4.8 µg/mL (≈ 12.5 µM) |  | 
Clc1ccc(C(c2ccc(OCCN3CCCCC3)cc2)c2cccs2)cc1 (stereo not drawn) | 100 µg/mL (≈ 243 µM) | 0.78 µg/mL (≈ 1.89 µM) | > 10 | Activity [4]: inactive; inhibition (percent reduction in intracellular colony forming units) [10]: >90%
COc1ccccc1C(c1ccc(OCCN(C(C)C)C(C)C)cc1)c1cccs1 (stereo not drawn) |  | 25 µg/mL (≈ 59 µM) |  | 
c1ccc(C(c2ccc(OCCN3CCCCC3)cc2)c2cccs2)cc1 (stereo not drawn) |  | 6.23 µg/mL (≈ 16.5 µM) |  | 
Fc1cccc(C(c2ccc(OCCN3CCCCC3)cc2)c2cccs2)c1 (stereo not drawn) |  | 19.8 µg/mL (≈ 50.1 µM) |  | 
CSc1ccc(C(c2ccc(OCCN(C(C)C)C(C)C)cc2)c2cccs2)cc1 (stereo not drawn) | 100 µg/mL (≈ 227 µM) | 1.57 µg/mL (≈ 3.57 µM) | > 10 | Activity [4]: Active; inhibition [9]: Active; inhibition (percent reduction in intracellular colony forming units) [10]: >90%
CC(C)N(CCOc1ccc(C(c2cccc(Cl)c2)c2cccs2)cc1)C(C)C (stereo not drawn) | 22 µg/mL (≈ 51.4 µM) | 1.34 µg/mL (≈ 3.13 µM) | > 10 | 
CC(C)N(CCOc1ccc(C(c2ccc(Cl)cc2)c2cccs2)cc1)C(C)C (stereo not drawn) | 100 µg/mL (≈ 234 µM) | 1.56 µg/mL (≈ 3.64 µM) | > 10 | Activity [4]: Active; inhibition (INH) [5]: 88%; inhibition (INH) [7]: 94%; inhibition (percent reduction in intracellular colony forming units) [10]: >90%
CC(C)N(CCOc1ccc(C(c2cccs2)c2ccccc2F)cc1)C(C)C (stereo not drawn) |  | 10.3 µg/mL (≈ 25 µM) |  | 
CCN(CC)CCOc1ccc(C(c2cccc(F)c2)c2cccs2)cc1 (stereo not drawn) | 5.8 µg/mL (≈ 15.1 µM) | 2.4 µg/mL (≈ 6.26 µM) | < 10 | 

Structure (SMILES) | IC50 [1] | MIC [11] | selectivity ratio [13] | also measured
CSc1ccccc1C(c1ccc(OCCN(C)C)cc1)c1cccs1 (stereo not drawn) |  | 12.5 µg/mL (≈ 32.6 µM) |  | 
NC(=O)c1cnccn1 [PYRAZINAMIDE] |  |  |  | Activity [22]: 1.9 ×10⁷ CFU; inhibition [10]: Active
c1ccc(C(c2ccc(OCCN3CCCCCC3)cc2)c2cccs2)cc1 (stereo not drawn) | 13 µg/mL (≈ 33.2 µM) | 3.1 µg/mL (≈ 7.92 µM) | < 10 | 
CN(C)CCOc1ccc(C(c2cccs2)c2ccccc2F)cc1 (stereo not drawn) |  | 17.8 µg/mL (≈ 50.1 µM) |  | 
Clc1cccc(C(c2ccc(OCCN3CCOCC3)cc2)c2cccs2)c1 (stereo not drawn) | 23.4 µg/mL (≈ 56.5 µM) | 5.18 µg/mL (≈ 12.5 µM) | < 10 | 
COc1ccccc1C(c1ccc(OCCN2CCCC2)cc1)c1cccs1 (stereo not drawn) |  | 25 µg/mL (≈ 63.5 µM) |  | 
Fc1ccccc1C(c1ccc(OCCN2CCCC2)cc1)c1cccs1 (stereo not drawn) |  | 19.1 µg/mL (≈ 50.1 µM) |  | 
NNC(=O)c1ccncc1 [ISONIAZID] |  |  |  | inhibition (INH) [5]: 84%; inhibition (INH) [7]: 93%; inhibition [9]: Active; inhibition [10]: Active
CCN(CC)CCOc1ccc(C(c2cccc(Cl)c2)c2cccs2)cc1 (stereo not drawn) | 10.1 µg/mL (≈ 25.3 µM) | 1.25 µg/mL (≈ 3.13 µM) | < 10 | 
CCN(CC)CCOc1ccc(C(c2cccs2)c2ccccc2OC)cc1 (stereo not drawn) |  | 25 µg/mL (≈ 63.2 µM) |  | 
CO[C@H]1/C=C/O[C@@]2(C)Oc3c(C)c(O)c4c(O)c(c(/C=N/N5CCN(C)CC5)c(O)c4c3C2=O)NC(=O)/C(C)=C\C=C\[C@H](C)[C@H](O)[C@@H](C)[C@@H](O)[C@@H](C)[C@H](OC(C)=O)[C@@H]1C [RIFAMPIN] |  |  |  | inhibition [10]: Active; CFU [23]: 2000
CCN(CC)CCOc1ccc(C(c2cccs2)c2ccccc2SC)cc1 (stereo not drawn) |  | 25 µg/mL (≈ 60.7 µM) |  | 
Clc1cccc(C(c2ccc(OCCN3CCCCC3)cc2)c2cccs2)c1 (stereo not drawn) | 8.7 µg/mL (≈ 21.1 µM) | 1.29 µg/mL (≈ 3.13 µM) | < 10 | 
c1ccc(C(c2ccc(OCCN3CCOCC3)cc2)c2cccs2)cc1 (stereo not drawn) |  | 25 µg/mL (≈ 65.8 µM) |  | 
CC[C@@H](CO)NCCN[C@@H](CC)CO [ETHAMBUTOL] |  |  |  | Activity [24]: 1.27 ×10⁷ CFU
COc1ccccc1C(c1ccc(OCCN2CCCCCC2)cc1)c1cccs1 (stereo not drawn) | 12.7 µg/mL (≈ 30.1 µM) | 2.64 µg/mL (≈ 6.26 µM) | < 10 | 
COc1ccccc1C(c1ccc(OCCN2CCOCC2)cc1)c1cccs1 (stereo not drawn) |  | 10.2 µg/mL (≈ 25 µM) |  | 
CN(C)CCOc1ccc(C(c2cccc(F)c2)c2cccs2)cc1 (stereo not drawn) |  | 17.8 µg/mL (≈ 50.1 µM) |  | 
